US5294611A, “Angiotensin II receptor blocking 2,3,6 substituted quinazolinones” (American Cyanamid Company, priority 1993, dated 1994)
pIC50: −log10 of the molar value.

Molecular target: T1, Angiotensin II Receptor (Bos taurus, UniProt P25104)
T1 construct: The brownish tissue forming the adrenal cortex is scraped off and finely minced with scissors before homogenization; tissue local slaughter house (maxwell-Cohen); host or cells: beef adrenal cortex, 100,000 x g microsomal membranes
T1 sequence (P25104 1-359): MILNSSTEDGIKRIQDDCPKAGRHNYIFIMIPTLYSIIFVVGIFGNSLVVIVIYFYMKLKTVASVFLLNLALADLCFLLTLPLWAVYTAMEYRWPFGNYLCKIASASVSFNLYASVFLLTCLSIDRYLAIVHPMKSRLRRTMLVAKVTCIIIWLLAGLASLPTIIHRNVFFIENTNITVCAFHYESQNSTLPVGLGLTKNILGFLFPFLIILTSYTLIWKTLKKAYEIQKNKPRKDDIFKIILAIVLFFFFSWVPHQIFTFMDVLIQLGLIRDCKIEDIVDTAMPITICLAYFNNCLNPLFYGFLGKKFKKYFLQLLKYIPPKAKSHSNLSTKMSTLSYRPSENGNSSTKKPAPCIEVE
Assay: Receptor Binding Assay: displacement of [^125 I](Sar^1,Ile^8)AngII from adrenal cortex microsomal membranes
Set-up: species or system beef (bovine adrenals)
Text: Beef adrenals are obtained from a local slaughter house (maxwell-Cohen). [^125 I](Sar^1,Ile^8)AngII, S.A. 2200 Ci/mmole, is purchased from Dupont (NEN®, Boston, Mass.). All unlabeled AngII analogs, Dimethylsulfoxide (DMSO), nucleotides, bovine serum albumin (BSA) are purchased from Sigma Chemical Co., St. Louis, Mo. U.S.A.
Approximately sixteen (16) to twenty (20) beef adrenal glands are processed as follows: fresh adrenal glands received on crushed ice are cleaned of fatty tissues and the tough membranes encapsulating the glands are removed and discarded. The brownish tissue forming the adrenal cortex is scraped off and finely minced with scissors before homogenization. Care is taken to avoid contamination with medullary tissue during dissection. The scraped cortices are suspended in twenty volumes of an ice-cold buffer medium consisting of 10 mM Tris.HCl (pH 7.4 at 22° C.) and containing 1.0 mM EDTA and 0.2M sucrose. Unless otherwise indicated, all subsequent operations are done at 4° C. […] The homogenate is centrifuged first at low speed (3,000× g) for 10 min. The resulting pellet is discarded and the supernatant fluid recentrifuged at 10,000× g for 15 minutes to give a P2 pellet. This P2 pellet is discarded and the liquid phase is carefully decanted off in clean centrifuge tubes and recentrifuged at high speed (100,000× g) for 60 min. The translucent final pellet is harvested and combined in a small volume (20-50.0 ml) of 50.0 mM Tris.HCl buffer, pH 7.2. A 100 ul aliquot is withdrawn and the protein content of the preparation is determined by the Lowry's method (Lowry, O. H., Rosebrough, N. F., Parr, A. L. and Randall, R. J., Protein measurement with Folin phenol reagent. J. Biol. Chem., 48, 265-275; 1951). The pelleted membrane is reconstituted in 50.0 mM Tris.HCl buffer containing 0.1 mM of phenylmethylsulfonyl fluoride (PMSF) to give approximately a protein concentration of 2.5 mg per ml of tissue suspension. The membrane preparation is finally aliquoted in 1.0 ml volumes and stored at -70° C. until use in the binding assays.
The binding of [^125 I](Sar^1,Ile^8)AngII to microsomal membranes is initiated by the addition of reconstituted membranes (1:10 vols.) in freshly made 50.0 mM Tris.HCl buffer, pH 7.4 containing 0.25% heat inactivated bovine serum albumin (BSA): 80 ul membrane protein (10 to 20 ug/assay) to wells already containing 100 ul of incubation buffer (as described above) and 20 ul [^125 I](Sar^1,ILE^8)AngII (Specific Activity, 2200 Ci/mmole). Non-specific binding is measured in the presence of 1.0 uM unlabeled (Sar^1,ILE^8)AngII, added in 20 ul volume. […] In competition studies, experimental compounds are diluted in dimethylsulfoxide (DMSO) and added in 20 ul to wells before the introduction of tissue membranes. […] Assays are performed in triplicate. The wells are left undisturbed for 60 min. at room temperature. Following incubation, all wells are harvested at once with a Brandel® Harvester especially designed for a 96 well plate (Brandel® Biomedical Research & Development Labs. Inc., Gaithersburg, Md., U.S.A.). The filter discs are washed with 10×1.0 ml of cold 0.9% NaCl to remove unbound ligand. […] This method is routinely used. The filters are removed from the filter grid and counted in a Parkard® Cobra Gamma Counter for 1 min. (Packard Instrument Co., Downers Grove, Ill., U.S.A.). The binding data are analyzed by the non-linear interactive "LUNDON-1" program (LUNDON SOFTWARE Inc., Cleveland, Ohio U.S.A.).

Row | pIC50 | Specific binding of radioligand (microsomal membranes, 60 min, room temperature) | Compound
1 | 6.80 |  | CCCCc1nc2ccc([C@@H]3[C@@H]4C(=O)OC[C@@H]4ON3C)cc2c(=O)n1Cc1ccc(-c2ccccc2-c2nnn[nH]2)cc1 (relative stereo) [Example 54]
2 |  | greater than 90% | [^125 I](Sar^1,Ile^8) AngII [reference compound]
